Patent US20240425517A1, “NOVEL COMPOUND FOR DEGRADATION OF TARGET PROTEIN OR POLYPEPTIDE BY POLYUBIQUITINATION” (PRAZER THERAPEUTICS INC., priority 2021, published 2024)

Biological target: T1, BRD4 proteins (Homo sapiens, UniProt O60885)
T1 construct: endogenous in cells; host or cells: MM.1S
Test: Degradation of BRD4 protein in MM.1S cell lines (Western blot densitometry)
Assay type: cell-based
Details: MM.1S cells, 10 μM, 24 hours
Procedure: To confirm that the compounds (BRD4 degraders) of Preparation Examples I′ to IV′ reduce the amount of BRD4 proteins, experiments were performed using MM.1S cell lines, which are B cells derived from the blood of multiple myeloma patients.
Specifically, the MM.1S cells were cultured in RPMI-1640 medium supplemented with 10% fetal bovine serum and Penicillin/Streptomycin (100 U/mL), transferred to a 6-well plate, and after 24 hours, the BRD4 degraders were diluted in the culture medium and the cells were treated with 10 μM each. After treatment, the cells were incubated in a C02 incubator for 24 hours. Through protein immunoblotting (Western Blot), the degrading capacity of each compound against BRD4 proteins in cells was confirmed. After cell culture was completed according to the experimental conditions, the cells were collected and centrifuged at 1,800 rpm for 3 minutes. The cells in the precipitate were lysed with RIPA (25 mM Tris-HCl pH 7.6, 150 mM NaCl, 1% NP-40, 1% sodium deoxycholate, 0.1% SDS, 1× Protease Inhibitor Cocktail), 5× sample buffer was added, and then heated at 100° C. for 15 minutes. The prepared sample was electrophoresed with sodium dodecyl sulfate poly acrylamide gel electrophoresis (SDS-PAGE), and then the proteins in the gel were transferred to a PVDF membrane using Trans-Blot Turbo. The membrane was treated with a 5% bovine serum albumin (BSA) solution and blocked at room temperature for 2 hours, and then BRD4 and R-actin antibodies were diluted in the 5% BSA solution to react with the membrane at 4° C. overnight. After washed with PBST (0.5% Tween20) 5 times, horse radish peroxidase (HRP)-conjugated secondary antibodies were diluted in PBST to react at room temperature for 2 hours, and then washed again with a PBST solution 5 times. After enzyme-substrate reaction was carried out using a HRP substrate, a signal was measured with chemi-doc equipment, and the densitometry of a band corresponding to the BRD4 protein detected in the Preparation Example Compounds was quantitatively analyzed. The case when the degrading capacity of each BRD4 degrader was reduced by less than 40% is indicated as +, the case when the degrading capacity was reduced by 40% to 70% (exclusive of 70) is indicated as ++, the case when the degrading capacity was reduced by 70% or more is indicated as +++ in Tables 16 to 19 below. As shown in the following Tables, it was confirmed that the compounds of Preparation Examples I′ to IV′ according to the present invention have excellent degrading capacity.

Compound	BRD4 degrading capacity (%)
Cc1sc2c(c1C)C(c1ccc(Cl)cc1)=N[C@@H](CC(=O)NCCCNC(=O)c1ccc(C#CCN)o1)c1nnc(C)n1-2.Cl [4-166′]	+++ (the degrading capacity was reduced by 70% or more)
Cc1sc2c(c1C)C(c1ccc(Cl)cc1)=N[C@@H](CC(=O)NCCC(=O)Nc1ccc(C#CCN)cc1)c1nnc(C)n1-2.Cl [4-124′, (S)—N-(4-(3-aminoprop-1-yn-1-yl)phenyl)-3-(2-(4-(4-chlorophenyl)-2,3,9-trimethyl-6H-thieno[3,2-f][1,2,4]triazolo[4,3-a][1,4]diazepin-6-yl)acetamido)propanamide hydrochloride]	+++ (the degrading capacity was reduced by 70% or more)
Cc1sc2c(c1C)C(c1ccc(Cl)cc1)=N[C@@H](CC(=O)Nc1ccc(C#CCN)c(C(=O)O)c1)c1nnc(C)n1-2.Cl [3-2′, (S)-2-(3-aminoprop-1-yn-1-yl)-5-(2-(4-(4-chlorophenyl)-2,3,9-trimethyl-6H-thieno[3,2-f][1,2,4]triazolo[4,3-a][1,4]diazepin-6-yl)acetamido)benzoic acid hydrochloride]	++ (the degrading capacity was reduced by 40% to 70% (exclusive of 70))
Cc1sc2c(c1C)C(c1ccc(Cl)cc1)=N[C@@H](CC(=O)NCCCC(=O)Nc1ccc(C#CCN)c(CO)c1)c1nnc(C)n1-2.Cl [5-8′, (S)—N-(4-(3-aminoprop-1-yn-1-yl)-3-(hydroxymethyl)phenyl)-4-(2-(4-(4-chlorophenyl)-2,3,9-trimethyl-6H-thieno[3,2-f][1,2,4]triazolo[4,3-a][1,4]diazepin-6-yl)acetamido)butanamide hydrochloride]	++ (the degrading capacity was reduced by 40% to 70% (exclusive of 70))
COC(=O)c1cc(N2CCN(C(=O)CCNC(=O)C[C@@H]3N=C(c4ccc(Cl)cc4)c4c(sc(C)c4C)-n4c(C)nnc43)CC2)ccc1C#CCN.Cl [5-33′, methyl (S)-2-(3-aminoprop-1-yn-1-yl)-5-(4-(3-(2-(4-(4-chlorophenyl)-2,3,9-trimethyl-6H-thieno[3,2-f][1,2,4]triazolo[4,3-a][1,4]diazepin-6-yl)acetamido)propanoyl)piperazin-1-yl)benzoate hydrochloride]	++ (the degrading capacity was reduced by 40% to 70% (exclusive of 70))
COC(=O)c1ccc(N2CC3(CN(C(=O)C[C@@H]4N=C(c5ccc(Cl)cc5)c5c(sc(C)c5C)-n5c(C)nnc54)C3)C2)cc1C#CCNC(=O)OC(C)OC(=O)C(C)C (stereo partly drawn) [5-162′, methyl 4-(6-(2-((S)-4-(4-chlorophenyl)-2,3,9-trimethyl-6H-thieno[3,2-f][1,2,4]triazolo[4,3-a][1,4]diazepin-6-yl)acetyl)-2,6-diazaspiro[3.3]heptan-2-yl)-2-(3-(((1-(isobutyryloxy)ethoxy)carbonyl)amino)prop-1-yn-1-yl)benzoate]	+++ (the degrading capacity was reduced by 70% or more)
Cc1sc2c(c1C)C(c1ccc(Cl)cc1)=N[C@@H](CC(=O)Nc1ccc(C(=O)O)c(C#CCN)c1)c1nnc(C)n1-2.Cl [3-26′, (S)-2-(3-aminoprop-1-yn-1-yl)-4-(2-(4-(4-chlorophenyl)-2,3,9-trimethyl-6H-thieno[3,2-f][1,2,4]triazolo[4,3-a][1,4]diazepin-6-yl)acetamido)benzoic acid hydrochloride]	++ (the degrading capacity was reduced by 40% to 70% (exclusive of 70))
Cc1sc2c(c1C)C(c1ccc(Cl)cc1)=N[C@@H](CC(=O)NCCCCCCCNC(=O)c1ccc(-c3ccc(C#CCN)cc3)o1)c1nnc(C)n1-2.Cl [5-111′, (S)-5-(4-(3-aminoprop-1-yn-1-yl)phenyl)-N-(7-(2-(4-(4-chlorophenyl)-2,3,9-trimethyl-6H-thieno[3,2-f][1,2,4]triazolo[4,3-a][1,4]diazepin-6-yl)acetamido)heptyl)furan-2-carboxamide hydrochloride]	++ (the degrading capacity was reduced by 40% to 70% (exclusive of 70))
Cc1ccc(NC(=O)CCCNC(=O)C[C@@H]2N=C(c3ccc(Cl)cc3)c3c(sc(C)c3C)-n3c(C)nnc32)cc1C#CCN.Cl [5-65′, (S)—N-(3-(3-aminoprop-1-yn-1-yl)-4-methylphenyl)-4-(2-(4-(4-chlorophenyl)-2,3,9-trimethyl-6H-thieno[3,2-f][1,2,4]triazolo[4,3-a][1,4]diazepin-6-yl)acetamido)butanamide hydrochloride]	+ (the degrading capacity of each BRD4 degrader was reduced by less than 40%)
COC(=O)c1ccc(N2CCN(CCCNC(=O)C[C@@H]3N=C(c4ccc(Cl)cc4)c4c(sc(C)c4C)-n4c(C)nnc43)CC2)cc1C#CCN.Cl [5-164′, methyl (S)-2-(3-aminoprop-1-yn-1-yl)-4-(4-(3-(2-(4-(4-chlorophenyl)-2,3,9-trimethyl-6H-thieno[3,2-f][1,2,4]triazolo[4,3-a][1,4]diazepin-6-yl)acetamido)propyl)piperazin-1-yl)benzoate hydrochloride]	+++ (the degrading capacity was reduced by 70% or more)
COC(=O)c1ccc(NC(=O)CCCCCCCCCC(=O)OCC[C@@H]2N=C(c3ccc(Cl)cc3)c3c(sc(C)c3C)-n3c(C)nnc32)cc1C#CCN.Cl [5-110′, methyl (S)-2-(3-aminoprop-1-yn-1-yl)-4-(11-(2-(4-(4-chlorophenyl)-2,3,9-trimethyl-6H-thieno[3,2-f][1,2,4]triazolo[4,3-a][1,4]diazepin-6-yl)ethoxy)-11-oxoundecanamido)benzoate hydrochloride]	++ (the degrading capacity was reduced by 40% to 70% (exclusive of 70))
COC(=O)c1ccc(NC(=O)CCCCNC(=O)C[C@@H]2N=C(c3ccc(Cl)cc3)c3c(sc(C)c3C)-n3c(C)nnc32)cc1C#CCN.Cl [5-5′, methyl (S)-2-(3-aminoprop-1-yn-1-yl)-4-(5-(2-(4-(4-chlorophenyl)-2,3,9-trimethyl-6H-thieno[3,2-f][1,2,4]triazolo[4,3-a][1,4]diazepin-6-yl)acetamido)pentanamido)benzoate hydrochloride]	++ (the degrading capacity was reduced by 40% to 70% (exclusive of 70))
COC(=O)c1ccc(NC(=O)CCCN(C)C(=O)C[C@@H]2N=C(c3ccc(Cl)cc3)c3c(sc(C)c3C)-n3c(C)nnc32)cc1C#CCN.Cl [5-149′, methyl (S)-2-(3-aminoprop-1-yn-1-yl)-4-(4-(2-(4-(4-chlorophenyl)-2,3,9-trimethyl-6H-thieno[3,2-f][1,2,4]triazolo[4,3-a][1,4]diazepin-6-yl)-N-methylacetamido)butanamido)benzoate hydrochloride]	+++ (the degrading capacity was reduced by 70% or more)
COC(=O)c1ccc(NC(=O)C2CCN(C(=O)C[C@@H]3N=C(c4ccc(Cl)cc4)c4c(sc(C)c4C)-n4c(C)nnc43)CC2)cc1C#CCN.Cl [5-23′, methyl (S)-2-(3-aminoprop-1-yn-1-yl)-4-(1-(2-(4-(4-chlorophenyl)-2,3,9-trimethyl-6H-thieno[3,2-f][1,2,4]triazolo[4,3-a][1,4]diazepin-6-yl)acetyl)piperidine-4-carboxamido)benzoate hydrochloride]	+++ (the degrading capacity was reduced by 70% or more)
